Measured values from PMC5023777 (British Journal of Cancer, 2016).
pIC50: −log10 of the molar value.

Legend:
HCT116 cells [1] = assay: Cell cycle phase analysis by flow cytometry, HCT116; conditions: GI50 concentration (100 μM for 6 and 3), 24 h, asynchronous cultures
mTOR = mTOR (Homo sapiens, UniProt P42345); assay: mTOR kinase TR-FRET assay; type: biochemical
HCT116 cells [2] = assay: SRB cell growth inhibition assay, HCT116; type: cell-based, human; conditions: HCT116 and HT29 cells, SRB GI50
CDK2 = CDK2 (Homo sapiens, UniProt P24941); assay: CDK2 purified kinase assay; type: biochemical
HCT116 cells [3] = assay: Clonogenic survival assay, HCT116; type: cell-based, human; conditions: 10 μM, 72 h exposure

mTOR, sequence (P42345 1360-2549 limits assumed): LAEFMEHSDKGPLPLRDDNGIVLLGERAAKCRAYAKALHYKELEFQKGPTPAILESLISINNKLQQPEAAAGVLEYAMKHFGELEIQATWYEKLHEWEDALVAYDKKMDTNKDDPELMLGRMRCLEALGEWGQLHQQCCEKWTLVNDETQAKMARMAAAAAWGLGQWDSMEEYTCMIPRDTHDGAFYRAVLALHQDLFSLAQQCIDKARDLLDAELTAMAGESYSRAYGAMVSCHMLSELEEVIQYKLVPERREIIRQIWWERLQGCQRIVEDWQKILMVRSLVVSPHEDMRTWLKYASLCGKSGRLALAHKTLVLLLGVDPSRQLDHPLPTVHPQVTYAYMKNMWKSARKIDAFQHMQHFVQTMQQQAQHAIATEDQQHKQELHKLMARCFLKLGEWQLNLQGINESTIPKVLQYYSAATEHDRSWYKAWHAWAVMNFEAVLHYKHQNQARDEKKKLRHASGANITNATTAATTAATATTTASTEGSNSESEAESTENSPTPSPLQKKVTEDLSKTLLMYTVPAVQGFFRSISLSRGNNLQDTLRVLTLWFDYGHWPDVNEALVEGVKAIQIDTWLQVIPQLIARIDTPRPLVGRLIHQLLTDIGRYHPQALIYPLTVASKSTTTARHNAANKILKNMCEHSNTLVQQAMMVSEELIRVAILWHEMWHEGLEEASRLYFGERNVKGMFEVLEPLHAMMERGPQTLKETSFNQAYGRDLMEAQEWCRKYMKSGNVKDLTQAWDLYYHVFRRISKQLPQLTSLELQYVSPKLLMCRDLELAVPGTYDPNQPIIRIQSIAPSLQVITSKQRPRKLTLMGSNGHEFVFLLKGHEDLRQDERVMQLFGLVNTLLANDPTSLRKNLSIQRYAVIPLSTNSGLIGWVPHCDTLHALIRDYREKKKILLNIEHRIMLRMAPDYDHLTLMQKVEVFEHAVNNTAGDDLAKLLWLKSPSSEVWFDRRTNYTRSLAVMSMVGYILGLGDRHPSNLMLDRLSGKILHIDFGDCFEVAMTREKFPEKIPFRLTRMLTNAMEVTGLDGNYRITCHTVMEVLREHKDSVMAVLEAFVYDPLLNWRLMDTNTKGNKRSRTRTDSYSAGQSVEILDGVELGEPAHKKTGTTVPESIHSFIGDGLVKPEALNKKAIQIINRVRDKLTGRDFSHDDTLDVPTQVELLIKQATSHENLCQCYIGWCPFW

Row | Compound | effect on cell cycle phase distribution, HCT116 (HCT116 cells [1]) | pIC50 (mTOR) | fold less potent at inhibiting cell growth than 1, 2 and 5 (HCT116 cells [2]) | also measured
1 | Nc1nc(N)c(N=O)c(OCC2CCCCC2)n1 [Compound 2] | greater G1 phase accumulation than rapamycin or dactolisib | 4.72 |  | 
2 | CCC(C)Oc1nc(N)nc(N)c1C#N (stereo not shown) [Compound 7, 2,6-Diamino-4-sec-butoxypyrimidine-5-carbonitrile] |  | < 4.70 | 5–10 fold | 
3 | CO[C@H]1C[C@@H]2CC[C@@H](C)[C@@](O)(O2)C(=O)C(=O)N2CCCC[C@H]2C(=O)O[C@H]([C@H](C)C[C@@H]2CC[C@@H](O)[C@H](OC)C2)CC(=O)[C@H](C)/C=C(\C)[C@@H](O)[C@@H](OC)C(=O)[C@H](C)C[C@H](C)/C=C/C=C/C=C/1C [Rapamycin] | caused a G1 arrest |  |  | 
4 | Cn1c(=O)n(-c2ccc(C(C)(C)C#N)cc2)c2c3cc(-c4cnc5ccccc5c4)ccc3ncc21 [Dactolisib (NVP-BEZ235)] | caused a G1 arrest |  |  | 
5 | Nc1nc(N)c(N=O)c(OCc2ccc(Cl)cc2)n1 [Compound 8, 6-(4-Chlorobenzyloxy)-5-nitrosopyrimidine-2,4-diamine] |  | 5.31 | 5–10 fold | inhibition of CDK2 (in words) (CDK2): did not inhibit CDK2
6 | NS(=O)(=O)c1ccc(Nc2nc(OCC3CCCCC3)c3nc[nH]c3n2)cc1 [NU6102, 4-[[6-(cyclohexylmethoxy)-9H-purin-2-yl]amino]-benzenesulfonamide] |  |  |  | cytotoxicity (clonogenic), HCT116 (HCT116 cells [3]): cytotoxic as a single agent
